Assay results published in ChEMBL document CHEMBL5465560, “Selectivity Literature for EUbOPEN Chemogenomic Library” (2024).

Legend:
[1] = target: Cyclin-dependent kinase 17 (Homo sapiens) (UniProt Q00537); assay: Selectivity interaction (Kinase panel (KiNativ target engagement assay in Jurkat cells)) EUB0001635a CDK17; format: cell-based; details: Selectivity number of off-targets 0.0, Selectivity number of targets 233.0, Source Knowledge https://www.sciencedirect.com/science/article/pii/S2451945619300674?via%3Dihub, at 1 µM
Cyclin-dependent kinase 17 (Homo sapiens), sequence (Q00537 whole entry, looked up): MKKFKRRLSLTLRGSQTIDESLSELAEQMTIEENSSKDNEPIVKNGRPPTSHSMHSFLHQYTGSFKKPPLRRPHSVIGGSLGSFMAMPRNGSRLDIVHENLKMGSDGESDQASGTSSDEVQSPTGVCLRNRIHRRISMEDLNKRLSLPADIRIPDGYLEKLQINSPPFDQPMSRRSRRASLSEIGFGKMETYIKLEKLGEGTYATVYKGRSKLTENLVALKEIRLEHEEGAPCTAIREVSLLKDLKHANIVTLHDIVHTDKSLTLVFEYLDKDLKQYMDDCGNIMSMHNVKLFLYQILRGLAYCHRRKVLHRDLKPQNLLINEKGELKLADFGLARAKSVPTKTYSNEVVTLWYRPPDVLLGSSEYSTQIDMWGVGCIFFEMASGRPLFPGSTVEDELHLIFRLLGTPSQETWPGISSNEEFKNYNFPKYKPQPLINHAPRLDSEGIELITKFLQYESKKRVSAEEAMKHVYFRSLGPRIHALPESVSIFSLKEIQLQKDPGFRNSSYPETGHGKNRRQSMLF

[2] = target: T1, Cyclin-dependent kinase 2 (Homo sapiens, UniProt P24941); assay: Selectivity interaction (KinomeScan (DiscoverX)) EUB0000229b CDK2; details: at 10 µM
[3] = target: Calcium/calmodulin-dependent protein kinase type 1G (Homo sapiens) (UniProt Q96NX5); assay: Selectivity interaction (KinomeScan (DiscoverX)) EUB0000045b CAMK1G
Calcium/calmodulin-dependent protein kinase type 1G (Homo sapiens), sequence (Q96NX5 whole entry): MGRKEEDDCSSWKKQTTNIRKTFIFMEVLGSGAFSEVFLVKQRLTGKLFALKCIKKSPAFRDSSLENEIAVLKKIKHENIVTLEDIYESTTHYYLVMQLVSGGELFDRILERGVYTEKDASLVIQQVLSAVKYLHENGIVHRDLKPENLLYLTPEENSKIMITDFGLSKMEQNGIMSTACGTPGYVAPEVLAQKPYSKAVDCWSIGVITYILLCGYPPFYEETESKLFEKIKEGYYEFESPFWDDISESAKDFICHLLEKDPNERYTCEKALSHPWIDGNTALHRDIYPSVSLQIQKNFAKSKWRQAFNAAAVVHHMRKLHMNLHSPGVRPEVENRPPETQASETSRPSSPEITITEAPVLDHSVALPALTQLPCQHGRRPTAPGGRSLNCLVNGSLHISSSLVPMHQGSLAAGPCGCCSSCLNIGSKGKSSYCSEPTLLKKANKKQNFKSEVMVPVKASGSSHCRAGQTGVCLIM

[4] = target: Platelet-derived growth factor receptor beta (Homo sapiens, UniProt P09619); assay: Selectivity interaction (Kinase panel (Z-LYTE Assay)) EUB0001632a PDGFRB; details: at 10 µM
Platelet-derived growth factor receptor beta, sequence (P09619 whole entry): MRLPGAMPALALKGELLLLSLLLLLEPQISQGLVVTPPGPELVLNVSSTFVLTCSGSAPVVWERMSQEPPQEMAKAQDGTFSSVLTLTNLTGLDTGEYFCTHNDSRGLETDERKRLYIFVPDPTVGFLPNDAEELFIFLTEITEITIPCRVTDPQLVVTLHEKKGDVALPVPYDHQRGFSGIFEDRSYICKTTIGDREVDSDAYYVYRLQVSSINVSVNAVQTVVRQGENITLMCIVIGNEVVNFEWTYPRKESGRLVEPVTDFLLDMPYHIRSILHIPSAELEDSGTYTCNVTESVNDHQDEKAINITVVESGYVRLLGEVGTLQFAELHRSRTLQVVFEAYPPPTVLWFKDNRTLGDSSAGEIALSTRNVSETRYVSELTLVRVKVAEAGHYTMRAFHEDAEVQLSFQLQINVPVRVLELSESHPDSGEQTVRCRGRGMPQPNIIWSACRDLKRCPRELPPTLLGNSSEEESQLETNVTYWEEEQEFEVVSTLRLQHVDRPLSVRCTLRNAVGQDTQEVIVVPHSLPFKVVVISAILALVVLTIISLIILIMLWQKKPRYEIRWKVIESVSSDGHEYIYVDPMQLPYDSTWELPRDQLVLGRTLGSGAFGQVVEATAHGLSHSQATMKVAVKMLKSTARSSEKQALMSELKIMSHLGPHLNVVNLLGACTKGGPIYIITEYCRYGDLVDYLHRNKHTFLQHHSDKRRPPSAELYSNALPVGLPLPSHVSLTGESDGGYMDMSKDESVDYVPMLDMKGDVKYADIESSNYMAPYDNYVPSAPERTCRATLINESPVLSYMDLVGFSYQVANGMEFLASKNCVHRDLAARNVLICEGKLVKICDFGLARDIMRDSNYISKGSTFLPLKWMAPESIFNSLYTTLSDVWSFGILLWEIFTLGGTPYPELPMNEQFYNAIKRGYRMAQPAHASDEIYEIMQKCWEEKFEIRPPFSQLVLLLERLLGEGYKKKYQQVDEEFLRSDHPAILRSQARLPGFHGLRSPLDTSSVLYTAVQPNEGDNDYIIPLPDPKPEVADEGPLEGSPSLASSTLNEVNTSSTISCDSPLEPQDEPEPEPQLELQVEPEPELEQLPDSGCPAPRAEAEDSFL

[5] = target: Protein polybromo-1 (Homo sapiens) (UniProt Q86U86); assay: Selectivity interaction (Bromodomain panel (DSF asssay)) EUB0000270b PBRM1
Protein polybromo-1 (Homo sapiens), sequence (Q86U86 whole entry): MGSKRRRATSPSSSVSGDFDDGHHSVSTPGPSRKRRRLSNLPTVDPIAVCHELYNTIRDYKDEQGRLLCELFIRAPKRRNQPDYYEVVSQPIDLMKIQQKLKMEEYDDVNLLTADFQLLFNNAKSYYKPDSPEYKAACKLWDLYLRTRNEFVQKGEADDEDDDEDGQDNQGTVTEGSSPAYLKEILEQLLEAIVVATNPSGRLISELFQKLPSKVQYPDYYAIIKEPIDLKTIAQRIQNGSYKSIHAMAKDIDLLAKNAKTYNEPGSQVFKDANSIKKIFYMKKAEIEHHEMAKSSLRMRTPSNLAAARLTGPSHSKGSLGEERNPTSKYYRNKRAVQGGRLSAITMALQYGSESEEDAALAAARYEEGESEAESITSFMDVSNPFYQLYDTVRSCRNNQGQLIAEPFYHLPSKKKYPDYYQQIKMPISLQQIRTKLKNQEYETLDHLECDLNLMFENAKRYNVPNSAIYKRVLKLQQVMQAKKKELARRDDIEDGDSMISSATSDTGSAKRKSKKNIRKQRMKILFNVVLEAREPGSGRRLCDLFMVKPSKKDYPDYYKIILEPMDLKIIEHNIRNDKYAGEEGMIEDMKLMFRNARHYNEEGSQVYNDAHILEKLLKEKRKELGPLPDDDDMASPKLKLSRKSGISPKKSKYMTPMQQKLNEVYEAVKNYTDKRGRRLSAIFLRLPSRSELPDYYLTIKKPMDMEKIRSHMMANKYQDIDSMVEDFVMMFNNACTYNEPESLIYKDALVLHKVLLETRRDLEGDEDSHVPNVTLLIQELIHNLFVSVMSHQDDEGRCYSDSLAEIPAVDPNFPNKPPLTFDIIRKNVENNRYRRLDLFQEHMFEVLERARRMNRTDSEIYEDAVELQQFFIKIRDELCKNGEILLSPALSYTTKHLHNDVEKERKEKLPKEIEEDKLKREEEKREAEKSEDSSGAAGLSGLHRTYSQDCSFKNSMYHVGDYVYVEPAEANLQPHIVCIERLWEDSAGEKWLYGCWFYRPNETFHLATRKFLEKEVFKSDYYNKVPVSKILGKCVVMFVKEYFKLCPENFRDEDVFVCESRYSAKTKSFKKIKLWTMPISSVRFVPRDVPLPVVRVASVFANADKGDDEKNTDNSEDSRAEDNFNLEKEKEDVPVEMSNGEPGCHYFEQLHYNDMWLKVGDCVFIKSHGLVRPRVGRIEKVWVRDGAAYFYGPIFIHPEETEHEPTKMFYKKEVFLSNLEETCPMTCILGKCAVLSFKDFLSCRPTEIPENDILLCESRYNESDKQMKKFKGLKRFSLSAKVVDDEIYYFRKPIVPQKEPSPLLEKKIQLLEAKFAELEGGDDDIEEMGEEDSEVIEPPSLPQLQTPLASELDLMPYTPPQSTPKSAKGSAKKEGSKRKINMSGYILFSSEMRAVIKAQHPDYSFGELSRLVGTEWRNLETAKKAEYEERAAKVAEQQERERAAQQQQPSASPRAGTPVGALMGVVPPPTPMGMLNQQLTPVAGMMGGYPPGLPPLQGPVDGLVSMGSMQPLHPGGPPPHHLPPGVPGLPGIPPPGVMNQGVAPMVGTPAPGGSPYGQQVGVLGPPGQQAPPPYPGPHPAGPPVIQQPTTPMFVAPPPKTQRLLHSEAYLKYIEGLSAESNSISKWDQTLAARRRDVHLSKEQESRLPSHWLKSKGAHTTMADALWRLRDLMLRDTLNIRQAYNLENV

[6] = target: T1, Cyclin-dependent kinase 2; assay: Selectivity interaction (ActivX KiNativ screen (ex vivo kinase selectivity in human PBMCs)) EUB0001619a CDK2; format: cell-based; details: PBMC, at 1 µM
[7] = target: Glycogen synthase kinase-3 alpha (Homo sapiens, UniProt P49840); assay: Selectivity interaction (KinomeScan (DiscoverX)) EUB0000618a GSK3A; details: at 10 µM
Glycogen synthase kinase-3 alpha, sequence (P49840 2-483 limits assumed): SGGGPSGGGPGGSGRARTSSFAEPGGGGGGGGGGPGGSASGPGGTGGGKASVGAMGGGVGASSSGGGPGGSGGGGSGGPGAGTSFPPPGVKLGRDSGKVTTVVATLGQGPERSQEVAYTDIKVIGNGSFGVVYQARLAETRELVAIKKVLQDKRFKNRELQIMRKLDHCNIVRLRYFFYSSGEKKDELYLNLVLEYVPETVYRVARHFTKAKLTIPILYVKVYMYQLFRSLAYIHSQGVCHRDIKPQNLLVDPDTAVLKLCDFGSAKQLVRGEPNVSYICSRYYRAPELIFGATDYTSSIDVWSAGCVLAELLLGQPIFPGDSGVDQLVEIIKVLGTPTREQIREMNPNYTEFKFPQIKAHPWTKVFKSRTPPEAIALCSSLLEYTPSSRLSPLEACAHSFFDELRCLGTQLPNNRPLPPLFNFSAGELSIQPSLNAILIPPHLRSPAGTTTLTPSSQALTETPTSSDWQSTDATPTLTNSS

[8] = target: T2, Mitogen-activated protein kinase kinase kinase 5 (Homo sapiens) (UniProt Q99683); assay: Selectivity interaction (ActivX KiNativ screen (kinase selectivity in THP-1 cell lysates)) EUB0000639a MAP3K5; format: subcellular; details: lysate, at 5 µM
T2 sequence (whole entry): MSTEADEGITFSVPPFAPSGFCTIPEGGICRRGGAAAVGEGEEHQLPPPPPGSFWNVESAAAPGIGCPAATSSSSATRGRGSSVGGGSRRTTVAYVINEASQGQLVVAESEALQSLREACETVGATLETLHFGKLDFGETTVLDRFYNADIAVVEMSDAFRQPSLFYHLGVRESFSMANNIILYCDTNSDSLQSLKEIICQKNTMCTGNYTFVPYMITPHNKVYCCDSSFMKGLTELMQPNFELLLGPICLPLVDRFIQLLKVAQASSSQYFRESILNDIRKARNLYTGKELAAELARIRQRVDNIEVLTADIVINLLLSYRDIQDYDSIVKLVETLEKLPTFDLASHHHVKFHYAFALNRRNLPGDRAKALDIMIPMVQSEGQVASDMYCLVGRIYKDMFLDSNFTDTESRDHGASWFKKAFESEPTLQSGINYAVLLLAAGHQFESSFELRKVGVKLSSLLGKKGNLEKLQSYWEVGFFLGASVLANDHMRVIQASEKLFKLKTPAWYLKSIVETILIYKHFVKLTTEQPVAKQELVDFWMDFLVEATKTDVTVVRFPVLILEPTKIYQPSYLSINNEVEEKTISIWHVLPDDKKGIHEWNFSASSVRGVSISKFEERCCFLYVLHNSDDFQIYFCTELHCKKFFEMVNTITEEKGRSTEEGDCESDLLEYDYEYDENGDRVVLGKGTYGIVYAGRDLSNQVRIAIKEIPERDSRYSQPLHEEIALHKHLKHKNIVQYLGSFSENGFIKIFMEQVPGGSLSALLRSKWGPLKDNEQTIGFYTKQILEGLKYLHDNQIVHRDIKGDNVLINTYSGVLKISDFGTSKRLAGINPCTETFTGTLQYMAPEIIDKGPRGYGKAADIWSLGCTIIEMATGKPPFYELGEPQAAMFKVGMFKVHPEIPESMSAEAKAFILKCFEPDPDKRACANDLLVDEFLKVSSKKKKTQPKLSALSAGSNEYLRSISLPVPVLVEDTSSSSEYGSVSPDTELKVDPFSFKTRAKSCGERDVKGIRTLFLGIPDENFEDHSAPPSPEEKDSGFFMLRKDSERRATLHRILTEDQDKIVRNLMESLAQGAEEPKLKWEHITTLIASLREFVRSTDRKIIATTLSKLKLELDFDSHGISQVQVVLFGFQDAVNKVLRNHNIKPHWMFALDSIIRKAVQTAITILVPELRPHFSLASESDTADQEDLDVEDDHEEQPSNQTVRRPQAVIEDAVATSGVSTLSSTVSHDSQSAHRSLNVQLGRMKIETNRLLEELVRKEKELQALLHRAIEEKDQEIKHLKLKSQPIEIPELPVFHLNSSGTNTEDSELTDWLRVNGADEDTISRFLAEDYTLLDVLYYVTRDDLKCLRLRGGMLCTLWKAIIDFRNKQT

[9] = target: Dual specificity testis-specific protein kinase 1 (Homo sapiens) (UniProt Q15569); assay: Selectivity interaction (KinomeScan (DiscoverX)) EUB0000655a TESK1; details: at 10 µM
Dual specificity testis-specific protein kinase 1 (Homo sapiens), sequence (Q15569 whole entry, looked up): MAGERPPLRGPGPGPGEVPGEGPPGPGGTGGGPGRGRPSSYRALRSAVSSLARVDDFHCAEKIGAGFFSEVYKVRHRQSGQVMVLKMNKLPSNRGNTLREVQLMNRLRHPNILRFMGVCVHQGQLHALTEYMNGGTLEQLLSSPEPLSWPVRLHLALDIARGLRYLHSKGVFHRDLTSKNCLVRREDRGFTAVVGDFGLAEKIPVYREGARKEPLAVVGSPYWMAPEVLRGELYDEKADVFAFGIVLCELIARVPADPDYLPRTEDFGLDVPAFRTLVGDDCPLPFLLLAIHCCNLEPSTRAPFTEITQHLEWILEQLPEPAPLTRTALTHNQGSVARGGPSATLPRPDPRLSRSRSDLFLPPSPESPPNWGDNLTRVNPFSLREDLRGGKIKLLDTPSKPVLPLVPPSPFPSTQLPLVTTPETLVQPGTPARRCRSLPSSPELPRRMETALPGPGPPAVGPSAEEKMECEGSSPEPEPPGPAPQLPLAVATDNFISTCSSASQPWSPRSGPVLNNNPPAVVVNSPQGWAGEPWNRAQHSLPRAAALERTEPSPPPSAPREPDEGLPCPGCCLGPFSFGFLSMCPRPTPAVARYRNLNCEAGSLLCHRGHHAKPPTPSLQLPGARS

C=CC(=O)Nc1ccc(C(=O)Nc2[nH]nc3c2CN(C(=O)N[C@H](CN(C)C)c2ccccc2)C3(C)C)cc1
% of engagement [1]: 12.8%

COc1cc(N(C)c2ccnc3ccc(C(F)(F)F)cc23)cc(OC)c1OC
% binding [2]: 100%

C=CC(=O)Nc1cc(-n2c(=O)ccc3cnc4ccc(-c5ccc(NS(C)(=O)=O)cc5)cc4c32)ccc1C
% of control ([3]; at 1 µM): 100%
% of control ([3]; at 10 µM): 68%

Cn1cc(-n2cnc3c(NCc4nc5cc(Cl)c(Cl)cc5[nH]4)nc(N4CCOCC4)nc32)cn1
% of control [4]: 12.7%

Cc1cc(CN)cc(C)c1-c1ncn(C)c1-c1cncn1C
dTM [5]: -0.44 K

N#Cc1cccc(-c2c[nH]c3ncnc(N4CCOCC4)c23)c1
% of inhibition [6]: 8%

O[C@H]1CC[C@H](Nc2ncc3nc(Nc4c(F)cc(F)cc4F)n([C@H]4CCOC4)c3n2)CC1
% of control [7]: 90%

CC[C@@H]1[C@H](F)C(=O)N[C@@H]1COc1nccc2cc(C(N)=O)c(OC)cc12 [ZIMLOVISERTIB]
% of inhibition [8]: -16.2%

CN(C)CCOc1ccc(-c2nc(-c3ccncc3)c(-c3ccc4c(c3)CC/C4=N\O)[nH]2)cc1
% of control [9]: 76%
